Results published in PubChem BioAssay (NCI).
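96-well plates; 48 h exposure; 5 concentrations. Endpoints by linear interpolation between flanking doses. Not reached: highest tested concentration assigned. At the TGI there is no net growth.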

How the values were obtained:
Assay in all cases: growth of human tumour cells (NCI), 48 h
[1] = test system: 786-0 renal
[2] = test system: A498 renal
[3] = test system: A549 NSCLC
[4] = test system: ACHN renal
[5] = test system: BT-549 breast
[6] = test system: CAKI-1 renal
[7] = test system: CCRF-CEM leukemia
[8] = test system: COLO 205 colon
[9] = test system: DU-145 prostate
[10] = test system: EKVX NSCLC
[11] = test system: HCC-2998 colon
[12] = test system: HCT-116 colon
[13] = test system: HCT-15 colon
[14] = test system: HL-60(TB) leukemia
[15] = test system: HOP-62 NSCLC
[16] = test system: HOP-92 NSCLC
[17] = test system: HS 578T breast
[18] = test system: HT29 colon
[19] = test system: IGROV1 ovarian
[20] = test system: K-562 leukemia
[21] = test system: KM12 colon
[22] = test system: LOX IMVI melanoma
[23] = test system: M14 melanoma
[24] = test system: MALME-3M melanoma
[25] = test system: MCF7 breast
[26] = test system: MDA-MB-231 breast
[27] = test system: MDA-MB-435
[28] = test system: MDA-N
[29] = test system: MOLT-4 leukemia
[30] = test system: NCI-H226 lung
[31] = test system: NCI-H23 lung
[32] = test system: NCI-H460 lung
[33] = test system: NCI-H522 lung
[34] = test system: NCI/ADR-RES ovarian
[35] = test system: OVCAR-3 ovarian
[36] = test system: OVCAR-4 ovarian
[37] = test system: OVCAR-5 ovarian
[38] = test system: OVCAR-8 ovarian
[39] = test system: PC-3 prostate
[40] = test system: RPMI-8226 leukemia
[41] = test system: RXF 393 renal
[42] = test system: SF-268 CNS
[43] = test system: SF-295 CNS
[44] = test system: SF-539 CNS
[45] = test system: SK-MEL-2 melanoma
[46] = test system: SK-MEL-28 melanoma
[47] = test system: SK-MEL-5 melanoma
[48] = test system: SK-OV-3 ovarian
[49] = test system: SN12C renal
[50] = test system: SNB-19 CNS
[51] = test system: SNB-75 CNS
[52] = test system: SR leukemia
[53] = test system: SW-620 colon
[54] = test system: T-47D breast
[55] = test system: TK-10 renal
[56] = test system: U251 CNS
[57] = test system: UACC-257 melanoma
[58] = test system: UACC-62 melanoma
[59] = test system: UO-31 renal
[60] = test system: DMS 114 small cell lung
[61] = test system: DMS 273 small cell lung
[62] = test system: HOP-18 NSCLC
[63] = test system: KM20L2 colon
[64] = test system: LXFL 529 NSCLC
[65] = test system: M19-MEL melanoma
[66] = test system: SNB-78 CNS

Clc1ccc(-c2nc3ccc(C45CC6CC(CC(C6)C4)C5)cc3[nH]2)cc1
TGI [1]: > 100 µM | TGI [2]: > 100 µM | TGI [3]: > 100 µM | TGI [4]: > 100 µM | TGI [5]: 98.3 µM | TGI [6]: > 100 µM | TGI [7]: > 100 µM | TGI [8]: 24.3 µM | TGI [9]: > 100 µM | TGI [10]: > 100 µM | TGI [11]: > 77.7 µM | TGI [12]: > 100 µM | TGI [13]: > 72.8 µM | TGI [14]: > 100 µM | TGI [15]: > 77 µM | TGI [16]: > 95.3 µM | TGI [17]: > 100 µM | TGI [18]: > 100 µM | TGI [19]: > 100 µM | TGI [20]: 0.0221 µM | TGI [21]: > 100 µM | TGI [22]: > 100 µM | TGI [23]: > 100 µM | TGI [24]: > 100 µM | TGI [25]: > 100 µM | TGI [26]: > 100 µM | TGI [27]: > 100 µM | TGI [28]: > 100 µM | TGI [29]: > 100 µM | TGI [30]: > 100 µM | TGI [31]: > 100 µM | TGI [32]: > 90.5 µM | TGI [33]: > 100 µM | TGI [34]: > 100 µM | TGI [35]: > 100 µM | TGI [36]: > 100 µM | TGI [37]: > 100 µM | TGI [38]: > 100 µM | TGI [39]: > 100 µM | TGI [40]: > 100 µM | TGI [41]: > 100 µM | TGI [42]: > 100 µM | TGI [43]: > 100 µM | TGI [44]: > 100 µM | TGI [45]: > 100 µM | TGI [46]: > 100 µM | TGI [47]: 60.4 µM | TGI [48]: > 100 µM | TGI [49]: > 100 µM | TGI [50]: > 100 µM | TGI [51]: > 100 µM | TGI [52]: > 100 µM | TGI [53]: > 100 µM | TGI [54]: > 100 µM | TGI [55]: 98.9 µM | TGI [56]: > 100 µM | TGI [57]: > 65.7 µM | TGI [58]: > 100 µM | TGI [59]: > 100 µM

FC(F)(F)C1(C(F)(F)F)O[SiH]2(OC(C(F)(F)F)(C(F)(F)F)c3ccccc32)c2ccccc21
TGI [1]: 31.7 µM | TGI [4]: 78.8 µM | TGI [6]: 87.1 µM | TGI [8]: 45.2 µM | TGI [60]: 29.1 µM | TGI [61]: 53.2 µM | TGI [10]: 39.4 µM | TGI [11]: 37.4 µM | TGI [13]: 25.9 µM | TGI [62]: 75.1 µM | TGI [18]: 23.2 µM | TGI [20]: 31.6 µM | TGI [21]: 62.5 µM | TGI [63]: 18.4 µM | TGI [64]: 38.5 µM | TGI [23]: 29.4 µM | TGI [65]: 39.4 µM | TGI [24]: 42 µM | TGI [29]: 30.5 µM | TGI [30]: 20.3 µM | TGI [31]: 24.5 µM | TGI [32]: 25.5 µM | TGI [33]: 42 µM | TGI [35]: 40.6 µM | TGI [36]: 23.4 µM | TGI [37]: 28.4 µM | TGI [38]: 83.9 µM | TGI [40]: 97.4 µM | TGI [41]: 31.2 µM | TGI [43]: 20.3 µM | TGI [44]: 25.4 µM | TGI [45]: 49.3 µM | TGI [46]: 72.6 µM | TGI [49]: 63.1 µM | TGI [50]: > 100 µM | TGI [66]: 52.8 µM | TGI [52]: 37.8 µM | TGI [53]: 45.4 µM | TGI [55]: 45.5 µM | TGI [56]: 19.6 µM | TGI [57]: 54.6 µM | TGI [59]: 30.7 µM
